The record followed here is patent US11771692B2, “N-hydroxyethyl didehydroazapodophyllotoxins as GBP1 inhibitors and methods of overcoming treatment resistance in cancer” (The Board of Trustees of the Leland Stanford Junior …, priority 2018, dated 2023).

In one assay the test system is SCC-90 tumor xenograft. Description: Head and neck SCC-90 tumor xenograft in nude mice. In kind it is in vivo. The note with it: SCC-90, nude mice. The procedure:
An immunodeficient nude mice model was also used to study the in vivo potential of SU093 and SU056 for head and neck cancer. Nude mice (n=3/group) were subcutaneously injected in the right flank with 5×10^6 SCC-90 cells mixed with matrigel and observed regularly until the tumor size reached about 200 mm^3. The treatment regime with drugs including dose, formulation and route of delivery was similar to ovarian cancer study discussed above. Doses of SU093 and SU056 were administered daily until 35 days and mice were sacrificed thereafter. […] At the end of 35 days, calculated tumor volume/mouse was 860.33±21.78 mm^3, 694.67±14.64 mm^3, and 435.00±10.81 mm^3 for control, SU093 and SU056 treatment groups, respectively. This equates to a 20% and 50% reduction in tumor volume for SU093 and SU056 treatment groups, respectively. A decrease in tumor weight of about 21% (P value not significant) and 54% (P<0.002) was also observed for the SU093 and SU56 treatment groups, respectively.

The subject of a further assay is GBP1. In words: cell-based reporter assay, OVCAR-8 stably transfected with GBP-1-luciferase. The note with it: OVCAR-8 GBP-1-luciferase. The source says: Exemplary compounds (1)-(17) and previously identified compound SU093 (Andreoli, M., Persico, M.; Kumar, A.; Orteca, N.; Kumar, V.; Pepe, A.; Mahalingam, S.; Alegria, A. E.; Petrella, L.; Sevciunaite, L.; Camperchioli, A.; Mariani, M.; Di Dato, A.; Novellino, E.; Scambia, G., Malhotra, S. V.; Ferlini, C.; Fattorusso, C., Identification of the First Inhibitor of the GBP1:PIM1 Interaction. Implications for the Development of a New Class of Anticancer Agents against Paclitaxel Resistant Cancer Cells. Journal of Medicinal Chemistry 2014, 57 (19), 7916-7932) were tested for GBP1 inhibition using a cell-based reporter assay in ovarian cancer cell line OVCAR-8 stably transfected with GBP-1-luciferase. Tables 1 and 2 below outlines the percentage of GBP1 expression in OVCAR-8 cells for each of the 17 compounds tested.
For orientation: In a reporter assay the amount or activity of a reporter protein is the signal.

The next assay deals with ID-8 tumor xenograft. Description: Ovarian ID-8 tumor xenograft in C57BL6 mice. In kind it is in vivo. As to conditions: ID-8, 20 mg/kg IP daily. From the text:
An immunocompetent syngeneic mouse model was used to evaluate in vivo antitumor effect of SU093 and SU056 (also referred to herein as Compound (I)) for ovarian cancer. C57BL6 female mice (n=5/group) were subcutaneously injected in the right flank with 5×10^6 ID-8 cells mixed with matrigel. From the day following xenograft implantation, mice were monitored regularly for tumor growth and once the tumors reached approximately 100 mm^3, the mice were randomly divided into three groups and respective treatments were given.
Group I (vehicle control): 100 μl of 10% PEG300 (w/v) in saline;
Group II: mice treated with SU093 (20 mg/kg); and
Group III: mice treated with SU056 (20 mg/kg).
Doses were administered intraperitoneally (IP) for 7 days/week for 42 days and the mice were sacrificed on day 43. Tumor sizes were measured twice weekly using digital caliper and tumor volume was calculated by the formula: 0.5236 L1 (L2)^2, where L1 is long diameter, and L2 is short diameter.

For the compound `O=C1OCC2=C1C(c1cccc(F)c1)c1cc3c(cc1N2CCO)OCO3` (centres unmarked) [SU056], the tumor volume/mouse in the assay on SCC-90 tumor xenograft (20 mg/kg IP daily, end of 35 days) turned out to be 435.00±10.81 mm^3; in the assay on ID-8 tumor xenograft (end of 6 weeks), 257.39±21.6 mm^3. The “decrease in tumor weight” value in the assay on SCC-90 tumor xenograft (35 days, vs control) is roughly 54%. Besides, the “reduction in tumor volume” value with SCC-90 tumor xenograft (35 days, vs control) is on record as 50%; in the assay on ID-8 tumor xenograft (42 days, vs control) it was 49.55%. Besides, the “% GBP1 expression OVCAR-8 @5 nM” value in the assay with GBP1 (5 nM) worked out at 54.16%. Also, in the assay on GBP1 (10 nM), the “% GBP1 expression OVCAR-8 @10 nM” value is 43.36%. In addition, in the assay on ID-8 tumor xenograft (42 days, vs control), the tumor weight decreased came out at 53.44%.
